Source: patent publication US10959984B2, “Methods for treating cancer with RORγ inhibitors” (THE REGENTS OF THE UNIVERSITY OF CALIFORNIA, priority 2015, dated 2021)
Entries after “also recorded” stand apart in the source; their conditions may differ.

Columns and labels:
[1] = test system: TNBC cells including MDA-MB468, MDA-MB231, BT20, SUM149, and HCC1937; test: CellTiter-GLO viability, triple-negative breast cancer cells; format: cell-based; conditions: Homo sapiens, 96 h, treated for 4 days
Procedure: (§1) For cell viability, cells were seeded in 96-well plates at 1500-2500 cells per well (optimum density for growth) in a total volume of 100 μl media. Serially diluted compounds in […] of media were added to the cells 12 hours later. After 4 days of incubation, Cell-Titer GLO reagents (Promega) were added and luminescence was measured on GLOMAX microplate luminometer (Promega), according to the manufacturer's instructions. All experimental points were set up as sextuplicate as biological replication and the entire experiments were repeated three times. The data are presented as percentage of viable cells with vehicle treated cells set as 100. The estimated in vitro IC50 values were calculated using GraphPad Prism 6 software.
(§2) Using a CellTiter-GLO assay, the viability of cells of different cancer types was measured after treatment with different concentrations of RORγ small molecule inhibitors for 4 days.

[2] = test system: ER-positive cells, such as MCF-7 and T47D; test: CellTiter-GLO viability, ER-positive breast cancer cells; format: cell-based; conditions: Homo sapiens, 96 h; ER-positive cells MCF-7 and T47D, treated for 4 days
Procedure: as §1, §2

[3] = test system: HER2-positive cells, such as SKBR3 and HCC1954; test: CellTiter-GLO viability, HER2-positive breast cancer cells; format: cell-based, human; conditions: SKBR3 and HCC1954, 4 days
Procedure: as §1, §2

breast cancer cells = test: CellTiter-GLO viability, breast cancer cells; format: cell-based, human; conditions: cells having different major molecular features, 4 days
Procedure: as §1, §2

MCF-7-TamR cell line = test: Growth of tamoxifen-resistant breast cancer cells; format: cell-based, human; conditions: MCF-7 TamR cells, in combination with tamoxifen
Procedure: as §2

lung cancer cells = test: CellTiter-GLO viability, lung cancer cells; format: cell-based, human; conditions: NSCLC cells: KRAS mutant (A427, Calu1, A549, H23, H358), BRAF mutant (H1666), EGFR mutant (HCC827, PC-9), Erlotinib-resistant (A427, H1975); 4 days
Procedure: as §1, §2

[4] = test system: OVCAR420, T24, ECC1, HepG2, Hep3B, T98G, SUDHL4, SUDHL6, HCT116 and docetaxel-resistant C4-2B cells; test: CellTiter-GLO viability, cells of other cancer types; format: cell-based, human; conditions: ovarian OVCAR420, bladder T24, endometrial ECC1, liver HepG2 and Hep3B, glioblastoma T98G, DLBCL SUDHL4 and SUDHL6, colon HCT116, docetaxel-resistant C4-2B; 4 days
Procedure: as §1, §2

AR = test: ARE reporter gene assay (5xARE-tk-luc) in 22Rv1 cells; format: cell-based, human
Procedure: Transient transfection and reporter gene assays were performed as previously described^49 with the following modifications. ARE reporter gene assays were performed by transfecting 22Rv1 cells with 5×ARE-tk-luc, pcDNA3.1-hAR and pCMV-β-gal for normalization. For transfection with constructs omitted for specific gene expression, corresponding empty vectors were used to ensure equal amount of total DNA used. Briefly, 22Rv1 cells seeded in 96-well plates in hormone-deprived medium supplemented with 10% cds-FBS (Hyclone) were transfected with lipofectamine 2000 (Life technology, Carlsbad, Calif., USA) and the indicated plasmid DNA. Cells were then treated at 12 hours after transfection with 3 nm R1881, indicated concentrations of RORγ antagonists or ENZ for another 24 hours before harvested for β-gal and luciferase assays. For RORE reporter gene assays, 4×AR-RORE-tk-luc was constructed by inserting four copies of the newly identified AR-RORE TTCTGGGTCA (SEQ ID NO: 1) into tk-luciferase reporter vector. AR-RORE mutant form (AR-RORE mut) contains sequences mutated from TTCTGGGTCA (SEQ ID NO: 1) to TTCTGAACGA (SEQ ID NO: 2). […] The luciferase and β-galactosidase were then analyzed with a Luciferase Assay Substrate (Promega) and Luminescent β-galactosidase Detection Kit II (Clontech). […]

22Rv1 xenografts = test: 22Rv1 xenograft tumor growth; format: in vivo, mice; conditions: nude mice; SR2211 5 mg/kg i.p., 8k/E11 10 and 20 mg/kg i.p., five times per week (FIG. 3A)
Procedure: (§3) Four-week-old male SCID C.B17 mice (for C4-2B and VCaP) or BALB/c nu/nu athymic mice (for 22Rv11 and PC-3) were purchased from Harlan Inc. For establishing tumors, 2×10^6 cells were suspended in total of 100 μL PBS/Matrigel (1:1) and implanted subcutaneously into the dorsal flank on both sides of the mice. Animal group size of six or more was estimated to have a high statistic power, based on power calculation (http://www.biomath.info/power/) and previous studies involving the same xenograft models^34,68. When the tumor volume was approximately 80 mm^3, the mice were randomized and then treated intraperitoneally (i.p.) with 100 μl of either vehicle or RORγ antagonists SR2211, XY011/8k (in a formulation of 15% Cremophor EL, Calbiochem, 82.5% PBS, and 2.5% DMSO) for five times per week. Tumor growth was monitored by calipers with volume calculated using the equation: (π/6 (length×width2)). Body weight during the course of the study was also monitored. At the end of the studies mice were killed and tumors were dissected and weighed. Additionally, prostate, seminal vesicle, testis, kidney, heart, lung, liver, epididymal fat pad and spleen were harvested and weighed. To assess the effect of combining RORγ antagonists and ENZ on the growth of castrated-resistant VCaP xenografts (CRPC-VCaP), first, SCID C.B17 mice were injected with VCaP cells as above to establish the tumors. Then, mice bearing tumors of approximately 180 mm^3 were surgically castrated. They were then observed for tumor regression. Once tumors grew back to the pre-castration size, mice were randomized and treated with vehicle, 5 mg kg^−1 SR2211, 10 mg kg^+1 ENZ or a combination of 5 mg kg^−1 SR2211 and 10 mg kg^−1 ENZ. ENZ was given by oral gavage as previously described^68 and SR2211 was administered i.p as above. Mice were excluded from the study if bearing no tumor or tumor with size twice larger or smaller than the mean, at the time of randomization.

CRPC-VCaP xenografts = test: Castration-resistant VCaP (CRPC-VCaP) xenograft tumor growth; format: in vivo; conditions: castrated mice, ENZ alone, 10 mg/kg oral
Procedure: as §3, with “Then, mice bearing tumors of approximately 180 mm^3 were surgically castrated. They were then observed for tumor regression. Once tumors grew back to the pre-castration size, mice were randomized and treated with vehicle, 5 mg kg^−1 SR2211, 10 mg kg^+1 ENZ or a combination of 5 mg kg^−1 SR2211 and 10 mg kg^−1 ENZ. ENZ was given by oral gavage as previously described^68 and SR2211 was administered i.p as above. Mice were excluded from the study if bearing no tumor or tumor with size twice larger or smaller than the mean, at the time of randomization.” left out

[5] = mouse, in vivo
Procedure: as §3, with “Then, mice bearing tumors of approximately 180 mm^3 were surgically castrated. They were then observed for tumor regression. Once tumors grew back to the pre-castration size, mice were randomized and treated with vehicle, 5 mg kg^−1 SR2211, 10 mg kg^+1 ENZ or a combination of 5 mg kg^−1 SR2211 and 10 mg kg^−1 ENZ. ENZ was given by oral gavage as previously described^68 and SR2211 was administered i.p as above. Mice were excluded from the study if bearing no tumor or tumor with size twice larger or smaller than the mean, at the time of randomization.” left out

Compound: CCS(=O)(=O)c1ccc(CC(=O)Nc2cc(Cl)c(-c3ccccc3OC(F)(F)F)c(Cl)c2)cc1 [GSK805, N-(3,5-Dichloro-4-(2-(trifluoromethoxy)phenyl)phenyl)-2-(4-ethylsulfonylphenyl)acetamide]
- IC50 [1]: 1 to 10 µM
- IC50 [2]: > 10 µM
- inhibition of HER2-positive cells [3]: relatively strong inhibition
- growth and survival of breast cancer cells (breast cancer cells): strongly inhibited the growth and survival of breast cancer cells
- sensitization of tamoxifen-resistant breast cancer cells to tamoxifen (MCF-7-TamR cell line): able to sensitize tamoxifen-resistant breast cancer cells to tamoxifen; also recorded: sensitized MCF-7 TamR cells to tamoxifen
- growth and survival of lung cancer cells (lung cancer cells): strongly inhibited the growth and survival of lung cancer cells
- growth and survival of cancer cells of other types [4]: significant inhibition of the growth and survival

Compound: CNC(=O)c1ccc(N2C(=S)N(c3ccc(C#N)c(C(F)(F)F)c3)C(=O)C2(C)C)cc1F [ENZ, enzalutamide]
- response of multimerized ARE-driven reporter (AR): repressed
- growth of xenograft tumors (22Rv1 xenografts): did not show any significant inhibitory effect
- CRPC tumor growth (CRPC-VCaP xenografts): only marginally effective
- tolerability based on weight of whole body and vital organs, and general behaviors [5]: well tolerated
